# Assay results published in patent publication US12421205B2, “GLP-1 receptor agonist” (HYUNDAI PHARM CO., LTD., priority 2019, dated 2025).
# How the values were obtained:
# human GLP-1 receptor = target: T1, human GLP-1 receptor (Homo sapiens, UniProt P43220); test: cAMP activity test (cAMP dynamic HTRF kit) in CHO-K1/GLP-1 receptor-expressing cells; format: cell-based; conditions: cAMP activity, CHO-K1/GLP-1 receptor-expressing cells; read-out: EC50
# T1 construct: host or cells: CHO-K1
# Procedure, shortened: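 Cells in HBSS with 0.1% BSA, 0.5 mM IBMX and 5 mM HEPES, then lysed; cAMP-d2 and anti-cAMP cryptate added for 3 h. HTRF read-out, where FRET signal is inversely proportional to intracellular cAMP.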
# hERG = target: T2, hERG (Homo sapiens, UniProt Q12809); test: hERG inhibition test (Predictor hERG Fluorescence Polarization assay kit); format: binding; conditions: probe kit Tracer (fluorescent hERG ligand), hERG % inhibition at 10 uM, relative to E-4031 and solvent control
# T2 construct: purchased Invitrogen PV5365
# Procedure, shortened: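 Competitive fluorescence-polarization binding of fluorescent tracer to hERG membrane preparation, 2.5 h at room temperature, mP read at 531/579 nm. % inhibition at 10 uM test compound, scaled between solvent control (0%) and E-4031 (100%).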
# T1 sequence (P43220 24-463): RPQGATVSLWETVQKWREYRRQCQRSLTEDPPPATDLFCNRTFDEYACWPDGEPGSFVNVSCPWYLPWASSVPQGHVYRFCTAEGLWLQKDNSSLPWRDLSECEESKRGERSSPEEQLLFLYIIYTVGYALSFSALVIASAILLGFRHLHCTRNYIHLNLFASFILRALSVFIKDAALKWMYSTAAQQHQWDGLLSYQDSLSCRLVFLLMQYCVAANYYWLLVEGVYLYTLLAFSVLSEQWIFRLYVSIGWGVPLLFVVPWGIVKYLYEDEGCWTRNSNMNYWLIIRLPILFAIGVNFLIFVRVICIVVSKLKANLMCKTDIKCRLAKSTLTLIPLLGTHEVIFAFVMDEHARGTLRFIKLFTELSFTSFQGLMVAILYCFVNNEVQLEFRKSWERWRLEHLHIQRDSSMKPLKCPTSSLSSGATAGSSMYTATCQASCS
# T2 sequence (Q12809 whole entry): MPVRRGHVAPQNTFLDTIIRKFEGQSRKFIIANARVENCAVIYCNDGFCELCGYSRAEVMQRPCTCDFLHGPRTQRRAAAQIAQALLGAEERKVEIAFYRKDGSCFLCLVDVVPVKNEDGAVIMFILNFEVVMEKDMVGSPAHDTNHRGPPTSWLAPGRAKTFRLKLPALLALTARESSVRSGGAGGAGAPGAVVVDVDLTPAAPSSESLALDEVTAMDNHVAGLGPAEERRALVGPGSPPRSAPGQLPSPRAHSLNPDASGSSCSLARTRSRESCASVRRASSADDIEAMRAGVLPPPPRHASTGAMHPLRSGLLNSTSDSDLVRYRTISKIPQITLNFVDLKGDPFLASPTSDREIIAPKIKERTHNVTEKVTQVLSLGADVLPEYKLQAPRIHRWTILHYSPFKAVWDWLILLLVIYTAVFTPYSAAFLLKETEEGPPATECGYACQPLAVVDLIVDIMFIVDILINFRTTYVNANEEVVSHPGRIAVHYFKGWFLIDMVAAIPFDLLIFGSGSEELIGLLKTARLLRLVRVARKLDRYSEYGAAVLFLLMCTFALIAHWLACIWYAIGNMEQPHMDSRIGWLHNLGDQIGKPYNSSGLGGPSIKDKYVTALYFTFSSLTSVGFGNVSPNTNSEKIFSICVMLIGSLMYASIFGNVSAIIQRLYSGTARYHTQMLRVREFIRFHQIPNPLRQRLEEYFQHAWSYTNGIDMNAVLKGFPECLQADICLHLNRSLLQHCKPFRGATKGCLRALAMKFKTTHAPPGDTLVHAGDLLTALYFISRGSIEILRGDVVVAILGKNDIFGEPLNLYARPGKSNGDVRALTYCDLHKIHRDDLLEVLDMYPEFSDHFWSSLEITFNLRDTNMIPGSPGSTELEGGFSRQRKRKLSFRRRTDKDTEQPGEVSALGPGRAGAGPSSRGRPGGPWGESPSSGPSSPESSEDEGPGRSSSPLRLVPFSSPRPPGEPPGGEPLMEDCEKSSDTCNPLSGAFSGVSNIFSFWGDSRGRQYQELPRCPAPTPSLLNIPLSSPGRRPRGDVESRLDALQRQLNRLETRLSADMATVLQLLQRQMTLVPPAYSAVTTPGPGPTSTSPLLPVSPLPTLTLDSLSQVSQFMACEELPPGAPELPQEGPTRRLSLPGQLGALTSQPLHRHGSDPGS
Structure (SMILES),EC50 (human GLP-1 receptor) [nM],"inhibition at 2.5 h, 10 µM (hERG) [%]"
"N#Cc1ccc(COc2cccc(-c3ccc(Cc4nc5ccc(C(=O)O)cc5n4C[C@@H]4CCCO4)c(F)c3)n2)c(F)c1 [Example 66, (S)-2-(4-(6-(4-cyano-2-fluorobenzyloxy)pyridin-2-yl)-2-fluorobenzyl)-1-((tetrahydrofuran-2-yl)methyl)-1H-benzo[d]imidazole-6-carboxylic acid]",4.6,-7.97
"N#Cc1ccc(COc2cccc(-c3ccc(Cc4nc5ccc(C(=O)O)cc5n4C[C@@H]4CCCO4)cc3F)n2)c(F)c1 [Example 67, (S)-2-(4-(6-(4-cyano-2-fluorobenzyloxy)pyridin-2-yl)-3-fluorobenzyl)-1-((tetrahydrofuran-2-yl)methyl)-1H-benzo[d]imidazole-6-carboxylic acid]",11,0.85
"Cc1cc(-c2cccc(OCc3ccc(C#N)cc3F)n2)ccc1Cc1nc2ccc(C(=O)O)cc2n1CC1CCCO1 (stereo not drawn) [Example 68, 2-(4-(6-(4-cyano-2-fluorobenzyloxy)pyridin-2-yl)-2-methylbenzyl)-1-((tetrahydrofuran-2-yl)methyl)-1H-benzo[d]imidazole-6-carboxylic acid]",29,-11.4
"N#Cc1ccc(COc2cccc(-c3cc(F)c(Cc4nc5ccc(C(=O)O)cc5n4CC4CCCO4)cc3F)n2)c(F)c1 (stereo not drawn) [Example 71, 2-(4-(6-(4-cyano-2-fluorobenzyloxy)pyridin-2-yl)-2,5-difluorobenzyl)-1-((tetrahydrofuran-2-yl)methyl)-1H-benzo[d]imidazole-6-carboxylic acid]",< 3.2,-2.52
"CCn1cncc1Cn1c(Cc2ccc(-c3cccc(OCc4ccc(Cl)cc4F)n3)cc2F)nc2ccc(C(=O)O)cc21 [Example 72, 2-(4-(6-(4-chloro-2-fluorobenzyloxy)pyridin-2-yl)-2-fluorobenzyl)-1-((1-ethyl-1H-imidazole-5-yl)methyl)-1H-benzo[d]imidazole-6-carboxylic acid]",< 3.2,-5.75
"N#Cc1ccc(COc2cccc(-c3ccc(Cc4nc5ccc(C(=O)O)cc5n4C[C@@H]4CCO4)cc3F)n2)c(F)c1 [Example 74, (S)-2-(4-(6-(4-cyano-2-fluorobenzyloxy)pyridin-2-yl)-3-fluorobenzyl)-1-(oxetan-2-ylmethyl)-1H-benzo[d]imidazole-6-carboxylic acid]",5.8,-16.2
"O=C(O)c1ccc2nc(Cc3ccc(-c4cccc(OCc5ccc(Cl)cc5)n4)cc3F)n(CC3CCCO3)c2c1 (stereo not drawn) [Example 75, 2-(4-(6-(4-chlorobenzyloxy)pyridin-2-yl)-2-fluorobenzyl)-1-((tetrahydrofuran-2-yl)methyl)-1H-benzo[d]imidazole-6-carboxylic acid]",23,-7.98
"Cc1ccc(COc2cccc(-c3ccc(Cc4nc5ccc(C(=O)O)cc5n4CC4CCCO4)c(F)c3)n2)cc1 (stereo not drawn) [Example 76, 2-(2-fluoro-4-(6-(4-methylbenzyloxy)pyridin-2-yl)benzyl)-1-((tetrahydrofuran-2-yl)methyl)-1H-benzo[d]imidazole-6-carboxylic acid]",38,-0.5
"O=C(O)c1ccc2nc(Cc3ccc(-c4cccc(OCc5ccc(C(F)(F)F)cc5)n4)cc3F)n(CC3CCCO3)c2c1 (stereo not drawn) [Example 77, 2-(2-fluoro-4-(6-(4-(trifluoromethyl)benzyloxy)pyridin-2-yl)benzyl)-1-((tetrahydrofuran-2-yl)methyl)-1H-benzo[d]imidazole-6-carboxylic acid]",28,-70.9
"Cc1cccc(COc2cccc(-c3ccc(Cc4nc5ccc(C(=O)O)cc5n4CC4CCCO4)c(F)c3)n2)c1 (stereo not drawn) [Example 80, 2-(2-fluoro-4-(6-(3-methylbenzyloxy)pyridin-2-yl)benzyl)-1-((tetrahydrofuran-2-yl)methyl)-1H-benzo[d]imidazole-6-carboxylic acid]",190,-25.2
"COc1cccc(COc2cccc(-c3ccc(Cc4nc5ccc(C(=O)O)cc5n4CC4CCCO4)c(F)c3)n2)c1 (stereo not drawn) [Example 81, 2-(2-fluoro-4-(6-(3-methoxybenzyloxy)pyridin-2-yl)benzyl)-1-((tetrahydrofuran-2-yl)methyl)-1H-benzo[d]imidazole-6-carboxylic acid]",210,-43.5
"O=C(O)c1ccc2nc(Cc3ccc(-c4cccc(OCc5ccccc5)n4)cc3F)n(CC3CCCO3)c2c1 (stereo not drawn) [Example 83, 2-(4-(6-(benzyloxy)pyridin-2-yl)-2-fluorobenzyl)-1-((tetrahydrofuran-2-yl)methyl)-1H-benzo[d]imidazole-6-carboxylic acid]",160,2.37
"N#Cc1ccc(COc2cccc(-c3ccc(Cc4nc5ccc(C(=O)O)cc5n4CC4CCCO4)c(F)c3)n2)cc1 (stereo not drawn) [Example 87, 2-(4-(6-(4-cyanobenzyloxy)pyridin-2-yl)-2-fluorobenzyl)-1-((tetrahydrofuran-2-yl)methyl)-1H-benzo[d]imidazole-6-carboxylic acid]",18,32.9
"O=C(O)c1ccc2nc(Cc3ccc(-c4cccc(OCc5ccc([N+](=O)[O-])cc5)n4)cc3F)n(CC3CCCO3)c2c1 (stereo not drawn) [Example 88, 2-(2-fluoro-4-(6-(4-nitrobenzyloxy)pyridin-2-yl)benzyl)-1-((tetrahydrofuran-2-yl)methyl)-1H-benzo[d]imidazole-6-carboxylic acid]",16,22.1
"O=C(O)c1ccc2nc(Cc3ccc(-c4cccc(OCc5ccc(Br)cc5F)n4)cc3F)n(CC3CCCO3)c2c1 (stereo not drawn) [Example 89, 2-(4-(6-(4-bromo-2-fluorobenzyloxy)pyridin-2-yl)-2-fluorobenzyl)-1-((tetrahydrofuran-2-yl)methyl)-1H-benzo[d]imidazole-6-carboxylic acid]",11,22.1
"Cc1cccc(COc2cccc(-c3ccc(Cc4nc5ccc(C(=O)O)cc5n4CC4CCCO4)cc3F)n2)c1 (stereo not drawn) [Example 90, 2-(3-fluoro-4-(6-(3-methylbenzyloxy)pyridin-2-yl)benzyl)-1-((tetrahydrofuran-2-yl)methyl)-1H-benzo[d]imidazole-6-carboxylic acid]",250,20.2
"O=C(O)c1ccc2nc(Cc3ccc(-c4ccc(F)c(OCc5ccc(Cl)cc5F)n4)cc3F)n(CC3CCCO3)c2c1 (stereo not drawn) [Example 91, 2-(4-(6-(4-chloro-2-fluorobenzyloxy)-5-fluoropyridin-2-yl)-2-fluorobenzyl)-1-((tetrahydrofuran-2-yl)methyl)-1H-benzo[d]imidazole-6-carboxylic acid]",7.2,-68.2

# The next lines start with results.
EC50 (human GLP-1 receptor) [nM],Structure (SMILES),"inhibition at 2.5 h, 10 µM (hERG) [%]"
31,"Cc1cc(-c2cccc(OCc3ccc(Cl)cc3F)n2)ccc1Cc1nc2ccc(C(=O)O)cc2n1CC1CCCO1 (stereo not drawn) [Example 69, 2-(4-(6-(4-chloro-2-fluorobenzyloxy)pyridin-2-yl)-2-methylbenzyl)-1-((tetrahydrofuran-2-yl)methyl)-1H-benzo[d]imidazole-6-carboxylic acid]",-14.7
< 3.2,"O=C(O)c1ccc2nc(Cc3cc(F)c(-c4cccc(OCc5ccc(Cl)cc5F)n4)cc3F)n(CC3CCCO3)c2c1 (stereo not drawn) [Example 70, 2-(4-(6-(4-chloro-2-fluorobenzyloxy)pyridin-2-yl)-2,5-difluorobenzyl)-1-((tetrahydrofuran-2-yl)methyl)-1H-benzo[d]imidazole-6-carboxylic acid]",-6.14
< 3.2,"O=C(O)c1ccc2nc(Cc3ccc(-c4cccc(OCc5ccc(Cl)cc5F)n4)c(F)c3)n(C[C@@H]3CCO3)c2c1 [Example 79, (S)-2-(4-(6-(4-chloro-2-fluorobenzyloxy)pyridin-2-yl)-3-fluorobenzyl)-1-(oxetan-2-ylmethyl)-1H-benzo[d]imidazole-6-carboxylic acid]",-2.04
4,"O=C(O)c1ccc2nc(Cc3ccc(-c4cccc(OCc5ccc(Cl)cc5F)n4)c(F)c3F)n(C[C@@H]3CCO3)c2c1 [Example 82, (S)-2-(4-(6-(4-chloro-2-fluorobenzyloxy)pyridin-2-yl)-2,3-difluorobenzyl)-1-(oxetan-2-ylmethyl)-1H-benzo[d]imidazole-6-carboxylic acid]",7.24
4,"O=C(O)c1ccc2nc(Cc3c(F)cc(-c4cccc(OCc5ccc(Cl)cc5F)n4)cc3F)n(C[C@@H]3CCO3)c2c1 [Example 84, (S)-2-(4-(6-(4-chloro-2-fluorobenzyloxy)pyridin-2-yl)-2,6-difluorobenzyl)-1-(oxetan-2-ylmethyl)-1H-benzo[d]imidazole-6-carboxylic acid]",-1.15
74,"O=C(O)c1ccc2nc(Cc3ccc(-c4cccc(OCc5ccc(F)c(F)c5)n4)cc3F)n(CC3CCCO3)c2c1 (stereo not drawn) [Example 85, 2-(4-(6-(3,4-difluorobenzyloxy)pyridin-2-yl)-2-fluorobenzyl)-1-((tetrahydrofuran-2-yl)methyl)-1H-benzo[d]imidazole-6-carboxylic acid]",-12.9
< 3.2,"O=C(O)c1ccc2nc(Cc3cc(F)c(-c4cccc(OCc5ccc(Cl)cc5F)n4)cc3F)n(C[C@@H]3CCO3)c2c1 [Example 86, (S)-2-(4-(6-(4-chloro-2-fluorobenzyloxy)pyridin-2-yl)-2,5-difluorobenzyl)-1-(oxetan-2-ylmethyl)-1H-benzo[d]imidazole-6-carboxylic acid]",8.93
